Read-outs that look alike come from different tables or passages of the source.
Key:
[1] = biological target: FGFR3 kinase (Homo sapiens, UniProt P22607); test: Z-Lyte Kinase Assay of FGFR3; format: biochemical
Experimental: Z-Lyte Kinase Assay of FGFR3
The final concentrations are 1, 0.33, 0.11, 0.037, 0.012, 0.004, 0.0014, 0.00046 μM, and the final concentration of DMSO is 2%. • 3) Kinase/Peptide Mixture (P/K solution): Prepare Kinase/Peptide Mixture by diluting the kinase to 0.7 μg/ml and the Z-LYTE™ Tyr 4 peptide to 4 μM in 1.33× Kinase Buffer. Mix gently by pipetting. • 4) Phospho-peptide Solution (PP solution): Add 0.4 μl of Z-LYTE™ Tyr 4 Phospho-peptide to 99.6 μl of 1.33× Kinase Buffer. • 5) ATP Solution: Prepare ATP Solution by diluting the 10 mM of ATP in 1.33× Kinase Buffer to 300 uM. • 6) Development Solution: Dilute Development Reagent B with Development Buffer as 1:128.
Shake the plate for 30 Sec and centrifuge (1500 rpm, 1 min) • Seal the plate to protect from the light and incubate the plate for 1 hour at RT (25-30[…]) • 2) Development reaction • Add 5 μl of the Development solution to all wells • Shake the plate for 30 Sec and centrifuge (1500 rpm, 1 min) • Seal the plate to protect from the light and incubate the plate for 1 hour at RT (25-30[…]) • 3) Stop and read • Add 5 μl of the Stop reagent to all wells • Shake the plate for 30 Sec and centrifuge (1500 rpm, 1 min) • Measure the value of Coumarin (Ex400 nm, Em445 nm) and fluorescein (Ex400 nm, Em520 nm), respectively.
Inhibition rate(IR)=1−%Photest Cpd/%PhoC2
• determined with add-in software for Microsoft Excel, XLfit™ (version 2.0) from ID Business Solutions (Guildford, UK)

[2] = test system: KG-1; test: Cellular Proliferation Assay (Cell Counting Kit-8), KG-1; format: cell-based; conditions: Homo sapiens, KG1 cells, 72 hours
Experimental: (§1) Cellular Proliferation Assay
(§2) • KG-1 (ATCC Accession No. CCL-246), • SNU-16 (ATCC Accession No. CRL-5974), • RT-112 (ECACC Accession No. 85061106)
(§3) • FGFR related cancer cell proliferation is measured in 96-well plates using Cell Counting Kit-8 (Dojindo CK04-13). • Seed 30000 cells/well of KG1, 5000 cells/well of SNU16, and 1000 cells/well of RT112 in a volume of 100 μL/well in growth media. • After 24 hours, dilute the compound to 10, 3.3, 1.1, 0.37, 0.12, 0.04, 0.013, 0.004 μM, keeping the DMSO concentration at 5%. • Add 10 μL of 8-point compound series to the wells of culturing cells. • Incubate at 37° C. and 5% CO2 for 72 hours • Add 10 μL/well of CCkit8 and incubate at 37° C. and 5% CO2 for an hour • Detect the optical density of each well at 450 nm on Labsystems Multiskan K3.
(§4) • ODcompound well represents the optical density of cells treated with compound. • ODcell well represents the optical density of cells without compounds treatment. (only 0.5% DMSO) • ODcontrol well represents the optical density of culture media background
(§5) The concentration of compound providing 50% of proliferation inhibition was calculated using Excel Fit.

[3] = biological target: Recombinant human FGFR1 (Homo sapiens, UniProt P11362); test: Transcreener Kinase Assay of FGFR1; format: biochemical
Recombinant human FGFR1, sequence (P11362 22-822): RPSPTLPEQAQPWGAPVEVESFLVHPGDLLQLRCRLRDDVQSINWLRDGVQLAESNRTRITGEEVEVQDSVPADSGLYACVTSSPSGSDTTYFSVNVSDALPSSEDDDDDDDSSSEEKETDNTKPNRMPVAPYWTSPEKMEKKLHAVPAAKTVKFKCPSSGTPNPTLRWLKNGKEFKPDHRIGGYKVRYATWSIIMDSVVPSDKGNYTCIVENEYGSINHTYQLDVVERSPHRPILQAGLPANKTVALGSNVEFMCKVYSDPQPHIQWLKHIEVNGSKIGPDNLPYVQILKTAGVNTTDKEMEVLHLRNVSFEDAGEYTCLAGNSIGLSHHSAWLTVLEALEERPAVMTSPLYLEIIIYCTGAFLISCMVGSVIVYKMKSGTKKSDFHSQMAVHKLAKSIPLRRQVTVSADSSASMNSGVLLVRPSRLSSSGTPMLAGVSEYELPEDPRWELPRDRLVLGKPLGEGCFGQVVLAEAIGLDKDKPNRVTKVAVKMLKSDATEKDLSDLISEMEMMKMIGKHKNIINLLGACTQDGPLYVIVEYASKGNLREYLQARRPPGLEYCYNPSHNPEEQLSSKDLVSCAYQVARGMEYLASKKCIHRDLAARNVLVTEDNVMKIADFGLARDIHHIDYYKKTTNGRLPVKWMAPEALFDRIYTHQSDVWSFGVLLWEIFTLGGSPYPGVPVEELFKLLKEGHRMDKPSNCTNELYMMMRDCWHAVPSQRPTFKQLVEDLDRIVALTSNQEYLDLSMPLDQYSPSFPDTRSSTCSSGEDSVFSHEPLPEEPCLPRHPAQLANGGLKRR
Experimental: Transcreener Kinase Assay of FGFR1
(§6) Prepare Solution • Compounds were solved in DMSO and were diluted with assay buffer to 5 folds of final concentration keeping the DMSO concentration at 5%. Further dilution are needed to make final concentrations are at 1, 0.33, 0.11, 0.037, 0.012, 0.004, 0.0014, 0.0005 μM; (the final concentration of DMSO is 1%). • Enzyme/Substrate stock Preparation: Recombinant human FGFR1 and Poly E4Y are both diluted in assay buffer.
(§7) Enzymatic Reaction • In a 96-well plate, Add 5 μL of compound or control. (positive control: 5 μL of 5% DMSO; negative control: 5 μL of 500 mM EDTA) into desired wells; • Add 10 μL of Enzyme/Substrate stock into each well; • Add 10 μL of ATP Diluents to initiate the enzyme reaction and votex the plate immediately on a plate shaker; • For the wells to make standard curve, add 5 μL of 5% DMSO, 10 μL of assay buffer and 10 μL of ATP standard curve stock. • Incubate the plate for 45 min at 28[…] on a plate shaker in a low speed.
Excitation wavelength: 610 nm, Emission wavelength: 670 nm.
(§8) • [ADP] in Compound well represents the ADP concentration in compound well. • [ADP] in Positive control well represents the ADP concentration in 5% DMSO well • Conversion of mP value to ADP concentration is calculated based on the formula which determined by standard curve. And mP value is measured by following the instruction provided by BellBrook Labs. (www.bellbrooklabs.com). 6. IC50: calculated using XL-Fit 2.0 software.

[4] = test system: SNU-16; test: Cellular Proliferation Assay (Cell Counting Kit-8), SNU-16; format: cell-based; conditions: Homo sapiens, SNU-16 cells, 72 hours
Experimental: as §1, §2, §3, §4, §5

[5] = biological target: Recombinant human FGFR2 (Homo sapiens, UniProt P21802); test: Transcreener Kinase Assay of FGFR2; format: biochemical
Recombinant human FGFR2, sequence (P21802 22-821): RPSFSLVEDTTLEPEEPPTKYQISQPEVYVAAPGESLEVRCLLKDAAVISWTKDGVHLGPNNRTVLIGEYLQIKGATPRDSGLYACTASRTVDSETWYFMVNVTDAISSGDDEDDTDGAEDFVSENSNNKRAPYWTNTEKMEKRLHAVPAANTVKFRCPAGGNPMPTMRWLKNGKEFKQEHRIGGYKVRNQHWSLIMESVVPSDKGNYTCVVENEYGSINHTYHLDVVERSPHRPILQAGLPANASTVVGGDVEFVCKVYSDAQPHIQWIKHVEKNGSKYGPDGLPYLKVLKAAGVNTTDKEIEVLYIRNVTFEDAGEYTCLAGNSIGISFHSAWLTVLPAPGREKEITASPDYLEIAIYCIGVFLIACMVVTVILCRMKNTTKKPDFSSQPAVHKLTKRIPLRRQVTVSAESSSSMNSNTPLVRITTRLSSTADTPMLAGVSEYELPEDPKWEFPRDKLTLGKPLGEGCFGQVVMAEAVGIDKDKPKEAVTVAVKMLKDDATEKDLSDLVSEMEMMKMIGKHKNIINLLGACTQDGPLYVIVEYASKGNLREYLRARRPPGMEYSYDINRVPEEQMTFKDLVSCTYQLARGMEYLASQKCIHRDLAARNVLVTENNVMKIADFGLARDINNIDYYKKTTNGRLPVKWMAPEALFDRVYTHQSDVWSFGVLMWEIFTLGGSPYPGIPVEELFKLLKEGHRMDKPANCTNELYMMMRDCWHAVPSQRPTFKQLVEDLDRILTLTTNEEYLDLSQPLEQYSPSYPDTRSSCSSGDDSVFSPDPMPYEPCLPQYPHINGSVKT
Experimental: Transcreener Kinase Assay of FGFR2
as §6, with “•” for “Prepare Solution •”, “FGFR2” for “FGFR1”, “buffer. The final concentration is 0.3 ng/μL for FGFR2 and 62.5 ng/μL for Poly E4Y. The mixture is being kept in ice before use; • Prepare ATP Diluents, 10 mM ATP is diluted in assay buffer, the final concentration is 25 μM; • Prepare ADP Diluents: diluted ADP (500 μM) in assay buffer, the final concentration is 25 μM; • Prepare ATP standard curve stock as following:” for “buffer.”
as §7, with “•” for “Enzymatic Reaction •”
• Detection Mix Preparation: The mixture is made by dilution with MilliQ water; as following: ADP Alexa633 tracer (1:100), ADP antibody (1:158), and stop & detect buffer (1:10); • Tracer Only control Preparation: The mixture is made by dilution with MilliQ water; as following: ADP Alexa633 tracer (1:100), and stop & detect buffer (1:10) • No Tracer control Preparation: stop & detect buffer is diluted with MilliQ water; by 10 fold. • Add 25 μL of detection mix, Tracer Only control and No Tracer control into corresponding wells, respectively; • Incubate at 28 °C for 1 h, on a plate shaker in a low speed; • Measure florescence polarization (FP) on TECAN F500. Excitation wavelength: 610 nm, Emission wavelength: 670 nm.
as §8

[6] = test system: RT-112; test: Cellular Proliferation Assay (Cell Counting Kit-8), RT-112; format: cell-based; conditions: Homo sapiens, RT-112 cells, 72 hours
Experimental: as §1, §2, §3, §4, §5

FGFR3 kinase, sequence (P22607 23-806): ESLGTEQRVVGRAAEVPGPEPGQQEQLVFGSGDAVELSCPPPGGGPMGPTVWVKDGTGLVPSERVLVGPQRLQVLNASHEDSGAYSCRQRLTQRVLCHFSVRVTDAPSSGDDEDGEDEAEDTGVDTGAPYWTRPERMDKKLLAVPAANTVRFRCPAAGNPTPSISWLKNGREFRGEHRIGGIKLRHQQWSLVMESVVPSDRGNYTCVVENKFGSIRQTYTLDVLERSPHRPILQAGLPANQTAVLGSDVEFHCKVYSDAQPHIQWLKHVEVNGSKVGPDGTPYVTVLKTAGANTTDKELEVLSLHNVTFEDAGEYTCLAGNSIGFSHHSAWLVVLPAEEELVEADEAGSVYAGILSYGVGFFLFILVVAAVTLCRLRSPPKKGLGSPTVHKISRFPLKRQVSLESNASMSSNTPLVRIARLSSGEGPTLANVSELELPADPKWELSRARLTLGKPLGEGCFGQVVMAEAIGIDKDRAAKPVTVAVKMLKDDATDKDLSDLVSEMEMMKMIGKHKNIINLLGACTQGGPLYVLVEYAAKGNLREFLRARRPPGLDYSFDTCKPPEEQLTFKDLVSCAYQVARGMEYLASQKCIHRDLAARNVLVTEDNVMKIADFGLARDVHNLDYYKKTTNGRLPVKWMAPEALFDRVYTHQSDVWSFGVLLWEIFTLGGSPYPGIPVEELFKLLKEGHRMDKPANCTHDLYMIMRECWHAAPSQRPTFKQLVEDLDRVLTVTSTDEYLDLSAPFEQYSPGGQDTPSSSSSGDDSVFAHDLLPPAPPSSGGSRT

| SMILES | IC50 [1] [µM] | IC50 ([3]; read-out: FGFR1 (FP) IC50) [µM] | IC50 [4] [µM] | IC50 ([5]; read-out: FGFR2 (FP) IC50) [µM] | IC50 [2] [µM] | IC50 [6] [µM] | IC50 ([3]; FGFR1 (FP) IC50) [µM] | IC50 ([5]; FGFR2 (FP) IC50) [µM] |
| --- | --- | --- | --- | --- | --- | --- | --- | --- |
| CNC(=O)c1cc(CCc2cnc(Nc3cnn(C[C@@H](C)O)c3)nc2)c(F)c(OC)c1 [Compound 33] | 0.017 | 0.022 | 0.019 | 0.007 | 0.047 | 0.135 |  |  |
| CNC(=O)c1cc(CCc2cnc(Nc3cnn(CC4CCN(C)CC4)c3)nc2)c(F)c(OC)c1 [Compound 137] | 0.007 | 0.012 | 0.029 | 0.006 | 0.319 | 0.086 |  |  |
| CNC(=O)c1cc(COc2cnc(Nc3ccc(N4C[C@@H](C)N[C@@H](C)C4)cc3)nc2)c(F)c(OC)c1 [Compound 192] | 0.008 | 0.012 | 0.002 | 0.006 | 0.008 | 0.014 |  |  |
| CCN1CC[C@@H](n2cc(Nc3ncc(CCc4cc(C(=O)NC)cc(OC)c4F)cn3)cn2)C1 [Compound 171] | 0.05 | 0.043 | 0.048 | 0.041 | 0.128 | 0.655 |  |  |
| CCn1cc(Nc2ncc(/C=C/c3cc(C(=O)NC)cc(OC)c3Br)cn2)cn1 [Compound 3] |  |  | 0.134 |  | 0.072 | 0.37 |  |  |
| CNC(=O)c1cc(COc2cnc(Nc3cnn(C)c3)nc2)c(Cl)c(OC)c1 [Compound 183] |  | 0.007 | 0.008 | 0.005 | 0.009 | 0.014 |  |  |
| CCS(=O)(=O)n1cc(Nc2ncc(CCc3cc(C(=O)NC)cc(OC)c3F)cn2)cn1 [Compound 140, 3-(2-(2-(1-(ethylsulfonyl)-1H-pyrazol-4-ylamino)pyrimidin-5-yl)ethyl)-4-fluoro-5-methoxy-N-methylbenzamide] | 0.06 |  | 0.062 | 0.016 | 0.152 | 0.438 |  |  |
| CNC(=O)c1cc(CCc2cnc(Nc3ccn(C)c(=O)c3)nc2)c(F)c(OC)c1 [Compound 93] | 0.011 | 0.018 | 0.047 | 0.009 | 0.125 |  |  |  |
| CCn1cc(Nc2ncc(OCc3cc(C(=O)NC)cc(OC)c3Cl)cn2)cn1 [Compound 184] |  | 0.009 | 0.01 | 0.007 | 0.005 | 0.053 |  |  |
| CCN1CCN(c2ccc(Nc3ccc(CCc4cc(C(=O)NOC)cc(OC)c4C)cn3)cc2)CC1 [Compound 47] | 0.008 | 0.006 | 0.074 | 0.006 | 0.063 |  |  |  |
| CNC(=O)c1cc(CCc2cnc(Nc3cnn(CC4CC4)c3)nc2)c(F)c(OC)c1 [Compound 141, 3-(2-(2-(1-(cyclopropylmethyl)-1H-pyrazol-4-ylamino)pyrimidin-5-yl)ethyl)-4-fluoro-5-methoxy-N-methylbenzamide] |  |  |  |  | 0.015 | 0.112 | 0.011 | 0.005 |
| CONC(=O)c1cc(CCc2cnc(Nc3ccn(C)n3)nc2)cc(OC)c1 [Compound 24] | 0.094 | 0.047 | 0.151 | 0.027 | 0.122 |  |  |  |

Further lines, with some results ahead:

| IC50 [1] [µM] | IC50 ([3]; read-out: FGFR1 (FP) IC50) [µM] | IC50 [4] [µM] | IC50 ([5]; read-out: FGFR2 (FP) IC50) [µM] | SMILES | IC50 [2] [µM] | IC50 [6] [µM] | IC50 ([3]; FGFR1 (FP) IC50) [µM] | IC50 ([5]; FGFR2 (FP) IC50) [µM] |
| --- | --- | --- | --- | --- | --- | --- | --- | --- |
| 0.002 | 0.003 | 0.004 | 0.002 | CCN1CCN(c2ccc(Nc3ncc(CCc4cc(C(=O)NOC)cc(OC)c4Cl)cn3)cc2)CC1 [Compound 59] | 0.002 |  |  |  |
| 0.013 | 0.009 | 0.018 | 0.006 | CONC(=O)c1cc(CCc2cnc(Nc3cnn(C)c3)nc2)cc(OC)c1 [Compound 23] | 0.029 |  |  |  |
| 0.016 | 0.01 | 0.044 | 0.007 | CONC(=O)c1cc(CCc2cnc(Nc3ccc(N4CCOCC4)cc3)nc2)cc(OC)c1 [Compound 37] | 0.046 |  |  |  |
| 0.039 | 0.012 | 0.048 | 0.01 | CONC(=O)c1cc(CCc2cnc(Nc3ccc(N4CCN(C)[C@H](C)C4)cc3)nc2)cc(OC)c1 [Compound 40] | 0.031 |  |  |  |
| 0.061 | 0.041 | 0.094 | 0.033 | CCN1CCN(c2ccc(Nc3ccc(CCc4cc(OC)cc(C(=O)NOC)c4)cn3)cn2)CC1 [Compound 75] | 0.123 |  |  |  |
| 0.011 | 0.005 | 0.022 | 0.005 | CONC(=O)c1cc(CCc2cnc(Nc3ccc(N4CCN(CCO)CC4)cc3)nc2)cc(OC)c1 [Compound 19, 3-(2-(2-((4-(4-(2-hydroxyethyl)piperazin-1-yl)phenyl)amino)pyrimidin-5-yl)ethyl)-N,5-dimethoxybenzamide] | 0.019 |  |  |  |
| 0.048 | 0.016 | 0.033 | 0.01 | CONC(=O)c1cc(CCc2cnc(Nc3ccc(OCCN4CCCC4)cc3)nc2)cc(OC)c1 [Compound 43] | 0.069 |  |  |  |
